These are literature values, as cited in patent US20100055178A1, “ENTERIC-COATED CREATINE COMPOSITIONS AND METHODS OF USE THEREOF” (priority 2008, published 2010).

The structures appear in SMILES notation.

The conditions of data set [1]: 5 grams, 4-6 times a day, for two or more days, oral.
For data set [2] the following is noted: acidic solutions, pH 3-6.

For `CN(CC(=O)O)C(=N)N` [creatine], the total creatine concentration entry in data set [1] was “significant increase”. Further, in data set [2], the “rate of conversion of creatine to creatinine” value was “almost instantaneous”.
